Test results as given in US7964598B2 (The J. David Gladstone Institutes, priority 1995, dated 2011).
Where “and” joins values, the source holds several entries; their conditions need not be identical. Equal entries are not always repeated.

What was measured:
HepG2 cells = test: Cell association of 125I-apoE-enriched β-VLDL by HepG2 cells; assay type: cell-based, human
B103-APP cells = test: APP processing and Aβ production, B103-APP cells; assay type: cell-based, rat; details: lipid-free apoE, 7.5 μg/ml, 24 h, compared to medium alone
Procedure: Aβ production assay. Stable neuroblastoma B103 cell lines transfected with a wildtype hAPP cDNA construct (B 103-APP) were selected by growing them in Dulbecco's modified Eagle's medium (DMEM) containing 10% fetal calf serum (FBS) and 400 μg/ml G418. A cell line expressing APP at similar levels in mouse brains has been identified by RNase protection assay (RPA) and was used in the studies described below. To determine Aβ production, B103-APP cells were incubated with serum-free minimal essential medium (MEM) containing N2 supplements with or without apoE isoforms for 24 h at 37° C. After incubation, 50 μl of medium was collected and assayed for Aβ levels with an ELISA method. The cells were lysed, and cellular proteins were determined by the Lowry method. AP production was normalized to cellular protein.
Cell Culture. Rat neuroblastoma B103 cells stably expressing human wildtype APP (hAPP695wt) (Xu et al. ((1999) Proc. Natl. Acad. Sci. USA 96:7547-7552; Esposito, et al. (2004) J. Neurochem. 91:1260-1274) were generated in Dr. Lennart Mucke's laboratory at the Gladstone Institute of Neurological Disease and maintained in Dulbecco's modified Eagle's medium (DMEM) (GIBCO, Grand Island, N.Y.) containing 400 μg/ml G418, 10% fetal bovine serum, and 5% horse serum at 37° C. Twenty-four hours after plating into 48-well plates (1×10^5 cells per well), cells were washed twice with serum-free DMEM and cultured for another 24 h in DMEM containing 1% N-2 supplement (GIBCO) to induce differentiation. The cells were treated with either β-VLDL (25 μg/ml cholesterol), recombinant human apoE isoform-enriched β-VLDL (7.5 μg/ml apoE and 25 μg/ml cholesterol), or recombinant human apoE (7.5 μg/ml apoE) in fresh DMEM containing 1% N-2 supplement for an additional 24 h. In some experiments, RAP (25 nM or 1 μM) was added to the cells 1 h before apoE treatment.
In some experiments, cells were treated with lovastatin, as described but with a minor modification. Fassbender et al. (2001) Proc. Natl. Acad. Sci. USA 98:5856-5861. Briefly, cells were maintained in differentiation medium containing 4 μM lovastatin and 0.25 mM mevalonate for 24 h. After treatment for 5 min with 5 mM methyl-β-cyclodextrin, which depletes cell membrane cholesterol (Bodovitz and Klein (1996) J. Biol. Chem. 271:4436-4440; Kojro et al. (2001) Proc. Natl. Acad. Sci. USA 98:5815-5820), the cells were incubated in fresh differentiation medium containing lovastatin and mevalonate for 24 h. The conditioned medium was collected, and cellular cholesterol extracted with chloroform/methanol (Huang et al. (1994) Proc. Natl. Acad. Sci. USA 91:1834-1838) and quantitated with a kit from Abbott Laboratories (Abbott Park, Ill.).
Detection of sAPPα. Media conditioned for 24 hours were normalized by protein content and subjected to SDS/PAGE. Proteins were then transferred onto nitrocellulose membranes. The sAPPα was detected by mAb 6E10 and visualized with an enhanced chemiluminescence system (Pierce, Rockford, Ill.).
Aβ Assay. Aβ secreted into the medium was detected with a sandwich enzyme-linked immunosorbent assay (ELISA), using mAb 266 as a capturing antibody and 3D6 as a detecting antibody, as described. Johnson-Wood et al. ((1997) Proc. Natl. Acad. Sci. USA 94:1550-1555). Aβ was quantified from a standard curve (Aβ42; Bachem, Torrance, Calif.) and normalized by total cellular protein.

emulsion particles = test: Control emulsion binding assays without compounds; details: n = 9; no compound
Procedure: Preparation of emulsion particles. Triolein (160 mg) and L-alpha-Phosphatidylcholine (40 mg) are combined and dried under nitrogen. After the addition of 8 mls of buffer (10 mM Tris, 100 mM KCl, 1 mM EDTA, pH 8.0), the mixture is sonicated in a water bath to obtain a heterogeneous mix of emulsion particles. The particles are harvested by ultracentrifugation (TLA 100.2 rotor, 30,000 rpm for 30 minutes) and the subsequent lipid cake is removed by tube slicing and resuspended in 100 μt 20 mM Phosphate Buffer (PB). Triolein and phospholipid content are measured and total emulsion particle concentration is determined.
Radiolabelling Freshly denatured and renatured Apolipoprotein E3 and E4 are radiolabelled using Bolton-Hunter Reagent [^125I] (ICN). Specific Activity is determined using Lowry method and Gamma 8000 counter.
Binding Affinity Assay. […] In glass tubes, 25 μg of protein (with iodinated tracer) was reduced with 1% β-mercaptoethanol. Two hundred and fifty μg of emulsion particles and 2.5 μl of compound (10 mM stock) were added and the final mixture was brought up to 250 μl with 20 mM phosphate buffer (PB). The reaction mixture was then incubated in a 37° C. water bath for 2 hours before being transferred to 1.5 ml ultracentrifuge tubes. Finally, 50 μl of 60% sucrose was mixed with the sample and 400 μl 20 mM PB was carefully layered on top. Using a TLA 100.2 rotor, the tube was spun at 30,000 rpm for 30 minutes and subsequently cut to separate the floating emulsion particle layer from the free protein at the bottom of the tube. These fractions were then combined with the respective half of the actual tube and counted using a Gamma-8000.

Substance | cell association (HepG2 cells; 4 hours) [ng/mg cell protein] | cell association (HepG2 cells; 8 hours) [ng/mg cell protein] | increase of Aβ production (B103-APP cells) | Mean % bound (emulsion particles) [%] | Mean % free (emulsion particles) [%] | Median % bound (emulsion particles) [%] | Median % free (emulsion particles) [%] | Range % bound (emulsion particles) | Range % free (emulsion particles)
apoE3: human apolipoprotein E3 isoform, also iodinated | 1062 ± 171 | 1466 ± 38 | 30% | 29.8 | 70.2 | 33 | 67 | 20-39% | 61-81%
apoE4: human apolipoprotein E4 isoform, also iodinated | 51 ± 10 | 683 ± 6 | ~70% and ~60% | 59.4 | 40.6 | 60 | 40 |  | 30-50%
